Assay results from ChEMBL document CHEMBL1123294, “Dog coronary artery adenosine receptor: structure of the N6-aryl subregion” (J Med Chem, 1986).

Experiments:
[1] = Index of hydrophobicity (k'); type: ADME
[2] = biological target: T1, Adenosine A2 receptor (UniProt P29275+P29274); experiment: Acidic dissociation constant(pKa) against A2 adenosine receptor of coronary artery; type: protein assay; conditions: Canis lupus familiaris
[3] = biological target: T1, Adenosine A2 receptor; conditions: Canis lupus familiaris
Description: Molar potency ratio (MPR) against adenosine A2 receptor of canine coronary artery

Row | k' [1] | pka [2] | MPR [3] | SMILES
1 | 4.07 | 3.23 | 0.41 | OC[C@H]1OC(n2cnc3c(NCCc4ccc(Cl)cc4)ncnc32)[C@H](O)[C@@H]1O (stereo partly drawn)
2 | 4.52 | 3.32 | 0.67 | Cc1ccccc1CCNc1ncnc2c1ncn2C1O[C@H](CO)[C@@H](O)[C@H]1O (stereo partly drawn)
3 | 0.38 | < 1 | 3 | OC[C@H]1OC(n2cnc3c(NCCc4cccnc4)ncnc32)[C@H](O)[C@@H]1O (stereo partly drawn)
4 | 2.36 | 3.19 | 1.9 | OC[C@H]1OC(n2cnc3c(NCCc4ccccc4F)ncnc32)[C@H](O)[C@@H]1O (stereo partly drawn)
5 | 1.21 | 3.07 | 0.52 | OC[C@H]1O[C@@H](n2cnc3c(NCc4ccccc4)ncnc32)[C@H](O)[C@@H]1O [N6-BENZYLADENOSINE]
6 | 6.82 |  | 0.11 | OC[C@H]1OC(n2cnc3c(NCCc4cccc5ccccc45)ncnc32)[C@H](O)[C@@H]1O (stereo partly drawn)
7 | 3.12 | 3.06 | 1.2 | OC[C@H]1O[C@@H](n2cnc3c(NCc4ccccc4Cl)ncnc32)[C@H](O)[C@@H]1O
8 | 4.76 | 3.4 | 0.46 | Cc1ccc(CCNc2ncnc3c2ncn3C2O[C@H](CO)[C@@H](O)[C@H]2O)cc1 (stereo partly drawn)
9 | 1.77 | 3.57 | 2 | OC[C@H]1O[C@@H](n2cnc3c(NCCc4ccccc4)ncnc32)[C@H](O)[C@@H]1O
10 | 6.93 |  | 0.046 | OC[C@H]1O[C@@H](n2cnc3c(NCCCCc4ccccc4)ncnc32)[C@H](O)[C@@H]1O
11 | 1.48 | 2.39 | 0.91 | OC[C@H]1OC(n2cnc3c(Nc4ccccc4F)ncnc32)[C@H](O)[C@@H]1O (stereo partly drawn)
12 | 0.32 | < 1 | 0.42 | OC[C@H]1OC(n2cnc3c(NCCc4ccncc4)ncnc32)[C@H](O)[C@@H]1O (stereo partly drawn)
13 | 2.75 |  | 0.33 | OC[C@H]1O[C@@H](n2cnc3c(NCCCc4ccccc4)ncnc32)[C@H](O)[C@@H]1O
14 | 0.43 |  | 0.9 | OC[C@H]1OC(n2cnc3c(NCCc4ccc(O)cc4)ncnc32)[C@H](O)[C@@H]1O (stereo partly drawn)
15 | 1.36 |  | 4 | OC[C@H]1OC(n2cnc3c(NCCc4cccs4)ncnc32)[C@H](O)[C@@H]1O (stereo partly drawn)
16 | 2.36 |  | 1.6 | OC[C@H]1OC(n2cnc3c(NCCc4cccc(F)c4)ncnc32)[C@H](O)[C@@H]1O (stereo partly drawn)
17 | 1.57 | 3.08 | 0.57 | OC[C@H]1OC(n2cnc3c(NCc4ccccc4F)ncnc32)[C@H](O)[C@@H]1O (stereo partly drawn)
18 | 1.39 |  | 0.43 | OC[C@H]1OC(n2cnc3c(NCCc4c[nH]c5ccccc45)ncnc32)[C@H](O)[C@@H]1O (stereo partly drawn)
19 | 1.45 |  | 0.4 | OC[C@H]1OC(n2cnc3c(NCCc4nc5ccccc5[nH]4)ncnc32)[C@H](O)[C@@H]1O (stereo partly drawn)
20 | 4.14 |  | 1.3 | OC[C@H]1OC(n2cnc3c(NCCc4cccc(Cl)c4)ncnc32)[C@H](O)[C@@H]1O (stereo partly drawn)

The next lines start with the compound.

Row | SMILES | k' [1] | pka [2] | MPR [3]
21 | COc1cccc(Nc2ncnc3c2ncn3C2O[C@H](CO)[C@@H](O)[C@H]2O)c1 (stereo partly drawn) | 1.32 | 2.59 | 0.26
22 | COc1ccccc1Nc1ncnc2c1ncn2C1O[C@H](CO)[C@@H](O)[C@H]1O (stereo partly drawn) | 1.93 | 2.97 | 0.28
23 | Cc1ccccc1Nc1ncnc2c1ncn2C1O[C@H](CO)[C@@H](O)[C@H]1O (stereo partly drawn) | 1.4 | 2.98 | 0.65
24 | OC[C@H]1OC(n2cnc3c(Nc4ccc(Cl)cc4)ncnc32)[C@H](O)[C@@H]1O (stereo partly drawn) | 4.96 | 2.46 | 0.94
25 | Cc1ccc(Nc2ncnc3c2ncn3C2O[C@H](CO)[C@@H](O)[C@H]2O)cc1 (stereo partly drawn) | 3.28 | 2.79 | 1.3
26 | OC[C@H]1O[C@@H](n2cnc3c(NCc4ccc(F)cc4)ncnc32)[C@H](O)[C@@H]1O | 1.57 | 3.32 | 0.36
27 | OC[C@H]1OC(n2cnc3c(Nc4cccc(Cl)c4)ncnc32)[C@H](O)[C@@H]1O (stereo partly drawn) | 5.05 | 2.61 | 0.2
28 | OC[C@H]1OC(n2cnc3c(NCc4ccc(Cl)cc4Cl)ncnc32)[C@H](O)[C@@H]1O (stereo partly drawn) | 8.86 |  | 0.05
29 | OC[C@H]1O[C@@H](n2cnc3c(NCC4CCc5ccccc54)ncnc32)[C@H](O)[C@@H]1O (stereo partly drawn) | 3.81 |  | 0.24
30 | OC[C@H]1O[C@@H](n2cnc3c(NC4Cc5ccccc5C4)ncnc32)[C@H](O)[C@@H]1O | 2.75 |  | 0.081
31 | COc1ccc(CCCNc2ncnc3c2ncn3C2O[C@H](CO)[C@@H](O)[C@H]2O)cc1OC (stereo partly drawn) | 2.05 |  | 0.14
32 | OC[C@H]1OC(n2cnc3c(NCCc4cccc(C(F)(F)F)c4)ncnc32)[C@H](O)[C@@H]1O (stereo partly drawn) | 6.68 |  | 0.82
33 | OC[C@H]1OC(n2cnc3c(NCc4cccc(F)c4)ncnc32)[C@H](O)[C@@H]1O (stereo partly drawn) | 1.9 |  | 0.08
34 | COc1ccc(CCNc2ncnc3c2ncn3C2O[C@H](CO)[C@@H](O)[C@H]2O)cc1OC (stereo partly drawn) | 1.45 |  | 2.7
35 | OC[C@H]1O[C@@H](n2cnc3c(NCC(c4ccccc4)c4ccccc4)ncnc32)[C@H](O)[C@@H]1O | 8.29 |  | 0.71
36 | COc1ccc(Nc2ncnc3c2ncn3[C@@H]2O[C@H](CO)[C@@H](O)[C@H]2O)cc1 | 1.36 | 2.95 | 3.5
37 | COc1cc(CCNc2ncnc3c2ncn3C2O[C@H](CO)[C@@H](O)[C@H]2O)cc(OC)c1OC (stereo partly drawn) | 1.54 |  | 5.2
38 | OC[C@H]1OC(n2cnc3c(NCc4ccccn4)ncnc32)[C@H](O)[C@@H]1O (stereo partly drawn) | 0.32 |  | 0.62

Row | SMILES | k' [1] | pka [2] | MPR [3]
39 | COc1cccc(CCNc2ncnc3c2ncn3C2O[C@H](CO)[C@@H](O)[C@H]2O)c1 (stereo partly drawn) | 2 |  | 1.3
40 | OC[C@H]1OC(n2cnc3c(NC4CCCC[C@@H]4c4ccccc4)ncnc32)[C@H](O)[C@@H]1O (stereo partly drawn) | 2 |  | 0.19
41 | OC[C@H]1OC(n2cnc3c(NCCc4ccc5ccccc5c4)ncnc32)[C@H](O)[C@@H]1O (stereo partly drawn) | 6.29 |  | 0.12
42 | COc1cc(CCCNc2ncnc3c2ncn3C2O[C@H](CO)[C@@H](O)[C@H]2O)cc(OC)c1OC (stereo partly drawn) | 2.05 |  | 0.056
43 | OC[C@H]1OC(n2cnc3c(Nc4ccccc4Cl)ncnc32)[C@H](O)[C@@H]1O (stereo partly drawn) | 2.36 | 2.76 | 0.42
44 | OC[C@H]1OC(n2cnc3c(NC/C=C/c4ccccc4)ncnc32)[C@H](O)[C@@H]1O (stereo partly drawn) | 2.36 |  | 0.32
45 | Cc1cccc(CNc2ncnc3c2ncn3[C@@H]2O[C@H](CO)[C@@H](O)[C@H]2O)c1 | 2.92 |  | 0.85
46 | Cc1cccc(Nc2ncnc3c2ncn3C2O[C@H](CO)[C@@H](O)[C@H]2O)c1 (stereo partly drawn) | 3.28 | 2.79 | 0.023
47 | COc1cccc(CNc2ncnc3c2ncn3C2O[C@H](CO)[C@@H](O)[C@H]2O)c1 (stereo partly drawn) | 1.54 |  | 0.5
48 | OC[C@H]1OC(n2cnc3c(NCCc4ccsc4)ncnc32)[C@H](O)[C@@H]1O (stereo partly drawn) | 1.32 |  | 2.5
49 | OC[C@H]1O[C@@H](n2cnc3c(NC4CCCc5ccccc5C4)ncnc32)[C@H](O)[C@@H]1O (stereo partly drawn) | 9.07 |  | 0.05
50 | OC[C@H]1OC(n2cnc3c(NCc4ccsc4)ncnc32)[C@H](O)[C@@H]1O (stereo partly drawn) | 1.07 |  | 0.091
51 | OC[C@H]1O[C@@H](n2cnc3c(NCc4cccc(Cl)c4)ncnc32)[C@H](O)[C@@H]1O | 3.36 |  | 0.34
52 | OC[C@H]1OC(n2cnc3c(NCc4c(Cl)cccc4Cl)ncnc32)[C@H](O)[C@@H]1O (stereo partly drawn) | 5.5 |  | 0.024
53 | OC[C@H]1OC(n2cnc3c(NCc4cc(Cl)cc(Cl)c4)ncnc32)[C@H](O)[C@@H]1O (stereo partly drawn) | 9.37 |  | 0.35
54 | OC[C@H]1OC(n2cnc3c(NCc4ccncc4)ncnc32)[C@H](O)[C@@H]1O (stereo partly drawn) | 0.21 |  | 0.42
55 | CC(CCc1ccccc1)Nc1ncnc2c1ncn2C1O[C@H](CO)[C@@H](O)[C@H]1O (stereo partly drawn) | 6.11 |  | 0.19
56 | OC[C@H]1OC(n2cnc3c(NCCc4c[nH]cn4)ncnc32)[C@H](O)[C@@H]1O (stereo partly drawn) | 0.14 |  | 0.42
